Reference: US11945973B2, “Ionic liquid-based coating and method of making articles coated with the same” (THE HONG KONG UNIVERSITY OF SCIENCE AND TECHNOLOGY, priority 2019, dated 2024)

Key:
[1] = test system: A549 lung epithelial cells
Description: A549 lung epithelial cells were grown in 25 cm^2 flasks with Dulbecco's modified Eagle's medium (DMEM) supplemented with 10% fetal bovine serum, 100 U/ml streptomycin, and 50 U/ml penicillin at 37° C. in a humidified atmosphere with 5% CO2. A subculture of confluent monolayers was carried out using 0.05% trypsin, 0.53 mmol/l ethylenediaminetetraacetic acid in calcium and magnesium-free Hanks balanced salt solution (HBSS). […] For the 3-(4,5-dimethylthiazol-2-yl)-2,5-diphenyltetrazolium bromide (MTT) assay, cells were plated in 96-well microplates at 2×10^5 cell/well for 6 hours, then the media were gently changed to remove non-adherent cells. The plates were used for assays after 24 hours. […] The media were replaced with 100 μl of dimethyl sulfoxide for 20 minutes, and the absorbances at 595 nm were determined using a microplate reader. […] The inhibition rate, I, is given by [formula] where C is the absorbance of the control group containing the cell solution and MTT, which indicates the number of maximum living cells, S is the absorbance of the sample group containing the cell solution, ionic liquids and MTT, which indicates the number of living cells in the ionic liquids, and B is the absorbance of the blank group containing only pure culture media and MTT, which is set reduce interference by the natural environment.

E. coli = experiment: Inhibition zone on agar plates; assay type: cell-based; settings: liquid applied to agar plate
Description: A bacterial suspension (0.1 ml) was spread onto tryptone soya agar plates. HEPA filters with ionic liquid coatings were cut into small pieces. They were then placed on the center of plates spread by bacteria. The plates were incubated at room temperature for 48 hours.

## CCn1cc[n+](C)c1.F[B-](F)(F)F [EMIM-BF4, 1-ethyl-3-methylimidazolium tetrafluoroborate]
[1]
  cytotoxicity (inhibition rate) for A549 lung epithelial cells: lowest cytotoxicity
E. coli
  inhibition zone for E. coli: obvious inhibition

## CCO [ethanol, reference compound]
E. coli
  inhibition zone for E. coli: no clear inhibition zones
